# Assay results reported in patent US5808065A, “Pyridazinone derivatives and processes for preparing the same” (Tanabe Seiyaku Co., Ltd., priority 1995, dated 1998).
# Tests used:
# [1] = Antinephritic Action (protein excretion inhibition in nephritis induced with nephrotoxic serum (NTS)); format: in vivo, male WKY rats; settings: 30 mg/kg/10 ml orally twice a day for 8 days; urine collected for 24 hours on the seventh day; 6 rats per group
# Procedure: Rabbits were immunized several times with an adjuvant and a renal glomerular basement membrane fraction obtained from WKY rats, and then whole blood was collected from the rabbits to obtain a nephrotoxic serum (NTS). This NTS was diluted by 50 times with physiological saline, and to male WKY rats of 8 weeks old, 2.5 ml of the diluted NTS per 1 kg of body weight was injected intravenously to induce nephritis. To a normal group, the same amount of physiological saline was administered intravenously. One experimental group consisted of 6 rats. Each compound to be tested was suspended in purified water by using a small amount of Tween 80 (trade name, produced by Nacalai Tesque Co.), and a dose of 30 mg/kg/10 ml was orally administered twice a day for continuous 8 days. To a normal group and a control group, the same amount of purified water was administered orally. On the seventh day, the rats were placed in a metabolic cage, and urine was collected for 24 hours. By measuring the concentrations of protein in urine by the sulfosalicylic acid method, the amounts of excreted protein (mg/day) were determined, and protein excretion-inhibiting rates were calculated by the following equation. [formula]
# [2] = Side Effect to Circulatory System (normal awakened rats, tail-cuff method); format: in vivo; settings: 30 mg/kg/10 ml orally, before and 2 hours after administration
# Procedure: One experimental group consisted of 4 rats. Each compound to be tested was suspended in purified water by using a small amount of Tween 80 (trade name, produced by Nacalai Tesque Co.), and a dose of 30 mg/kg/10 ml was administered orally to normal awakened rats. Systolic blood pressures and heart rates before administration and 2 hours after administration were examined. The systolic blood pressures and the heart rates were measured by the tail-cuff method (KN-210, trade name, produced by Natsume Seisakusho) under conditions of pretreatment at 40° C. for 15 minutes.
# According to the following equations, the respective changing rates were calculated. [formula]
# mice = test: Toxicity (death of mice observed for 3 days); format: in vivo
# Description: The desired compound (I) of the present invention has low toxicity.
Compound,Inhibition rate (protein excretion-inhibiting rate) [1] [%],Heart rate-changing rate [2],Systolic blood pressure-changing rate [2],"death (mice; mouse, in vivo, ip, 300 mg/kg)","death (mice; orally, 1,000 mg/kg, observed for 3 days)"
"O=C(NCCCCc1ccc(-c2ccc(=O)[nH]n2)cc1)c1cccnc1 [Example 30, 6-[4-(4-(pyridin-3-ylcarbonylamino)butyl)phenyl]pyridazin-3(2H)-one]",82.5,3 Δ%,-2 Δ%,–,–
O=C(NCCCc1ccc(-c2ccc(=O)[nH]n2)cc1)c1cccnc1 [Example 31],–,7 Δ%,0 Δ%,–,–
Cc1ncccc1C(=O)NCCCCc1ccc(-c2ccc(=O)[nH]n2)cc1 [Example 32],64.3,5 Δ%,-2 Δ%,–,–
Nc1ncccc1C(=O)NCCCCc1ccc(-c2ccc(=O)[nH]n2)cc1 [Example 70],74.1,–,–,–,–
"C=CS(=O)(=O)NCCCc1ccc(-c2ccc(=O)[nH]n2)cc1 [Example 52-(4), 6-[4-(3-vinylsulfonylaminopropyl)phenyl]-pyridazin-3(2H)-one]",74.6,–,–,–,–
"CC1CC(=O)NN=C1c1ccc(CCNC(=O)c2cccnc2)cc1 (stereo not drawn) [Known compound, 5-methyl-6-(4-[2-(pyridin-3-ylcarbonylamino)ethyl]phenyl)-4,5-dihydropyridazin-3 (2H)-one, reference compound]",–,18 Δ%,-7 Δ%,–,–
"Cl.O=C(NCCCCc1ccc(-c2ccc(=O)[nH]n2)cc1)c1cccnc1 [Example 69, 6-[4-(4-(pyridin-3-ylcarbonylamino)butyl)phenyl]pyridazin-3(2H)-one hydrochloride]",82.2,–,–,no case of death was observed,no case of death was observed
Nc1ncccc1C(=O)NCCCCc1ccc(-c2ccc(=O)[nH]n2)cc1 [Example 33],85.7,2 Δ%,1 Δ%,–,–
"O=C(NCCCOc1ccc(-c2ccc(=O)[nH]n2)cc1)c1cccnc1 [Example 36, 6-[4-(3-(pyridin-3-ylcarbonylamino)propoxy)phenyl]pyridazin-3(2H)-one]",89.0,1 Δ%,0 Δ%,–,–
